The record followed here is patent US10590056B2, “ERR modulators and uses thereof” (CITY OF HOPE, priority 2017, dated 2020).

The test system of experiment [1] is ERRγ target gene SHP. Kind of experiment: Endogenous SHP transcript by real-time PCR in C2C12 myotubes. It counts as cell-based, mouse. As to conditions: 100 nM, 48 hours, vs DMSO. As for the experimental part:
(§1) FIGS. 7A-7C. […] FIG. 7A. 293 HEK cells expressing either GFP or ERRγ via adenoviral transduction were treated with either vehicle (DMSO) or 100 nM DY40 for 48 hours. Expression of endogenous SHP (NR0B2) was quantitated by real-time PCR. Values are normalized to β-actin transcript and reported relative to GFP untreated levels (=1.0). Data represent mean±S.E.M. for 3 independent trials. FIG. 7B. C2C12 myotubes were treated with either vehicle or 100 nM DY40 for 48 hours. Expression of endogenous SHP was measured by quantitative real-time PCR. Values are normalized to 36b4 (Rp1p0) transcript and reported relative to expression in DMSO treated cells (=1.0). Data represent mean±S.E.M. for 3 independent trials. *, P<0.05 DMSO versus DY40 treated values. FIG. 7C. C2C12 myotubes were treated with either vehicle or 100 nM DY40 for 48 hours. Oxidation of ^3H-palmitate-BSA was measured as described in Methods. Values are normalized to total cellular protein and reported relative to expression in DMSO treated cells (=1.0). […]
(§2) Validation of DY40 effects on endogenous ERRγ target gene expression and metabolism in cell based models. […] We also evaluated the effects of the compound in C2C12 myotubes that have significant endogenous ERRγ expression. […]
(§3) Experimental transcript levels were normalized to 36B4 ribosomal RNA analyzed in separate reactions. […]

Experiment [2] has as its system C2C12 myotubes. The experiment can be described thus: Fatty acid oxidation assay (3H-palmitate-BSA) in C2C12 myotubes. It counts as cell-based. The conditions noted are these: 100 nM, 48 hours, compared to vehicle-treated controls. As for the experimental part:
as §1, with “Methods.” for “Methods. Values are normalized to total cellular protein and reported relative to expression in DMSO treated cells (=1.0).”
The analysis of fatty acid oxidation rates in cells was performed as previously described.^57 Fatty acid ^3H-[9,10]-palimitic acid was complexed to fatty acid-free BSA and this complex was added to 30 uM unlabeled palmitate. […] The substrate was removed and radiolabeled aqueous metabolites (^3H2O) released to the media were measured by scintillation counting. The calculated rates were normalized to total cellular protein.

For experiment [3], the target named is T1, Human ERα (Homo sapiens, UniProt P03372).
T1 construct: Human ERα and ERβ were examined as full-length proteins using an estrogen receptor responsive reporter construct; expressed in transfected cells; host or cells: CV-1 cells, cytomegalovirus-driven expression vectors
T1 sequence (P03372 1-595): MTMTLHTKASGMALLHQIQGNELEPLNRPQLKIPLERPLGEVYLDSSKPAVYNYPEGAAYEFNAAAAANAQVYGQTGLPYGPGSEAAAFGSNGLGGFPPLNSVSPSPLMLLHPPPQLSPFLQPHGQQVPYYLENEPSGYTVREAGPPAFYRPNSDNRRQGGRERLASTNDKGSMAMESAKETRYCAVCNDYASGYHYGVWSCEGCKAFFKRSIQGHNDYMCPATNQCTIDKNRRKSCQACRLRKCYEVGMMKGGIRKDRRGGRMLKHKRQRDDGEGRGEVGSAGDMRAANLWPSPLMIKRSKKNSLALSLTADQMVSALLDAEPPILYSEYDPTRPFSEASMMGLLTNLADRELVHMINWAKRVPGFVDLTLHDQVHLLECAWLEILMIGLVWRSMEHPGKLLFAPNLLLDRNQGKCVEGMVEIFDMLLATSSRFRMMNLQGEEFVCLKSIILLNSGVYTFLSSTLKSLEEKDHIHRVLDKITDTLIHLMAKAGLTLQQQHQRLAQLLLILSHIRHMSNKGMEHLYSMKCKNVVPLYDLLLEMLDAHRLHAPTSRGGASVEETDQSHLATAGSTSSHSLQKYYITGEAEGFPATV
The experiment can be described thus: Full-length ERα, estrogen receptor responsive reporter assay in CV-1 cells. It counts as cell-based. The conditions noted are these: selectivity evaluation. As for the experimental part:
Cell based transactivation assays were performed in CV-1 cells as described.^49 ERR activity was assayed with a GAL4 reporter construct and fusion proteins containing the ligand binding domains of human ERRα, human ERRβ and mouse ERRγ linked to the DNA binding domain of yeast GAL4. Human ERα and ERβ were examined as full-length proteins using an estrogen receptor responsive reporter construct. Reporter constructs (300 ng/10^5 cells) and cytomegalovirus-driven expression vectors (20-50 ng/10^5 cells) were added as indicated along with CMX-β-gal (500 ng/10^5 cells) as an internal control. Cells were transiently transfected by Lipofectamine as described.^56 Cells were incubated with DNA complexed liposomes for 2 hours and subsequently treated for approximately 45 hr with phenol red free DMEM FBS containing the indicated compounds. After exposure to ligand, the cells were harvested and assayed for luciferase and β-galactosidase activity. All points were assayed in triplicate and varied by less than 15%. Each experiment was repeated three or more times with similar results. Fold activation is reported.
(Reporter assays use an easily measured gene product as a stand-in for the process of interest.)

Experiment [4] concerns ERRγ target gene SHP (NR0B2). Kind of experiment: Endogenous SHP (NR0B2) expression by real-time PCR in 293 HEK cells expressing ERRγ via adenovirus. As to conditions: 293HEK over-expressing ERRγ, 100 nM, 48 hours. It counts as cell-based, human. As for the experimental part: as §1, §2, §3
On the technique in general: Real-time PCR tracks product formation cycle by cycle.

As to `CC(=O)Oc1ccc(/C(=C(/c2ccccc2)C(C)C)c2ccc(OCCN(C)C)cc2)cc1` [Compound 4a, (E)-4-{1-[4-(2-dimethylamino-ethoxy)-phenyl]-3-methyl-2-phenyl-but-1-enyl}-phenyl acetate], in experiment [1], the “repression of endogenous SHP transcript levels” value was ~60%. The “change in palmitate oxidation rates” value in experiment [2] is on record as −42%. In experiment [3], the “ERα antagonist activity, in words” value was “remains an antagonist potency of ERα”. In addition, the “ERRγ mediated induction of SHP transcript” value in experiment [4] is “completely blocked”.
